In patent publication US20250206719A1, “ALBICIDIN DERIVATIVES, THEIR USE AND SYNTHESIS” (TECHNISCHE UNIVERSITÄT BERLIN, priority 2022, published 2025):
Values after ≈ are worked out from the molar mass of the structure shown. Where two headings read alike, the source gives them in different places.

How the values were obtained:
E. coli BW25113 [1] = assay: MIC determination (medium: MHBII/human serum (1:1)); assay type: cell-based; conditions: Escherichia coli
Procedure: The test was carried out for bacterial strain, E. coli BW25113 (Gram-negative).
First, 20 μl of glycerol stock of the strain was inoculated in 20 mL LB followed by incubation overnight at 37° C., 200 r.p.m.
The serum was subjected to a heat shock (56° C./30 min in a water bath) before use.
The test inoculum was adjusted by the 0.5 McFarland Standard, so that each well contained approximately 5×10^5 c.f.u. mL^−1 in a final volume of 100 μL. For the adjustment of the test inoculum, MHBII medium and the human serum were used in a mixing ratio of 1:1.
For dilutions, the dry powders were dissolved in DMSO with a concentration of 2.56 mg mL-1 and serially diluted in DMSO (100%). Initial solution and serial dilutions of Ciprofloxacin were prepared in 0.1 N HCl.
Then, 95 μL of the adjusted inoculum was applied per well and 5 μl of each antibiotic dilution was applied to the microdilution tray to reach final concentrations of 8 to 0.016 μg ml^−1.
The antimicrobial effect of the solvent (DMSO or 0.1 N HCL) was tested by adding 5 μL DMSO or 0.1 N HCL to several wells.
One row of each well plate served as a growth control without antibiotic substances, and another row of the microdilution tray served as sterility control (MHB II-media).

S. typhimurium TA100 = assay: MIC microdilution assay, S. typhimurium TA100; assay type: cell-based; conditions: Salmonella enterica, 20 h, read-out: MIC S. typhimurium TA100
Procedure: (§1) The tests were performed using the micro dilution method.
(§2) The determination of MIC values was performed according to the ninth edition of the Approved Standard M07-A9 (CLSI. Methods for Dilution Antimicrobial Susceptibility Tests for Bacteria That Grow Aerobically; Approved Standard-Ninth Edition. CLSI document M07-A9. Wayne, PA: Clinical and Laboratory Standards Institute; 2012.)
(§3) The test was carried out for different bacterial strains (E. coli DSM 1116, E. coli BW25113 [gram negative], B. subtilis DSM 10 [gram positive], M. luteus DSM 1790 [gram positive], S. typhimurium TA100 [gram negative]) and M. phlei DSM 750. 20 μL of cryo stock of each strain were inoculated in 20 mL of LB media (Lysogeny broth: 10 g/L peptone, 5 g/L yeast extract, 5 g/L NaCl) followed by incubation over night at 37° C., 200 rpm. The test inoculum was adjusted by the 0.5 McFarland Standard (OD625 from 0.08 to 0.1). Within 15 min of preparation, the adjusted inoculum suspension was diluted in MHBII media (BBL TM Mueller-Hinton Broth II, Becton, Dickinson and Company, New Jersey/USA) so that each well contained approximately 5×10^5 CFU/mL in a final volume of 100 μL. 95 μL of the inoculum were applied per well and 5 μL of the (diluted) antibiotic substance were added.
(§4) Previously the dry antibiotic compounds were dissolved in DMSO (100%) with a concentration of 2560 μg/mL and the resulting stock solutions were further diluted in DMSO (100%). 5 μL of each antibiotic dilution were applied to the microdilution tray to reach final concentrations of 64 μg/mL to 0.008 μg/mL. One row of each well plate was left as a growth control without antibiotic substances and another row of the microdilution tray was used as sterility control (only MHB II-media). The antimicrobial effect of the solvent (DMSO) was tested by adding 5 μL DMSO to several wells without antibiotics. Purity check and cell titer control were performed according to International Standard M07-A9 on Mueller-Hinton II Agar (Mueller Hinton II Broth, 15 g/L agar-agar). Both microdilution trays and agar plates were incubated at 37° C. for 20 h and subsequently analyzed visually.

M. phlei DSM 750 = assay: MIC microdilution assay, M. phlei DSM 750; assay type: cell-based, Mycobacterium phlei; conditions: Mycolicibacterium phlei, read-out: MIC M. phlei DSM 750
Procedure: as §1, §2, §3, §4

Bacillus subtilis DSM10 = assay: MIC microdilution assay, B. subtilis DSM 10; assay type: cell-based; conditions: read-out: MIC B. subtilis DSM10
Procedure: as §1, §2, §3, §4

[2] = system: Micrococcus luteus DSM1790; assay: MIC microdilution assay, M. luteus DSM 1790; assay type: cell-based; conditions: read-out: MIC M. luteus DSM 1790
Procedure: as §1, §2, §3, §4

E. coli DSM 1116 = assay: MIC microdilution assay, E. coli DSM 1116; assay type: cell-based; conditions: Escherichia coli, read-out: MIC E. coli DSM1116
Procedure: as §1, §2, §3, §4

E. coli BW25113 [3] = assay: MIC microdilution assay, E. coli BW25113; assay type: cell-based; conditions: Escherichia coli, read-out: MIC E. coli BW25113
Procedure: as §1, §2, §3, §4

[4] = E. coli BW25113, MHBII/human serum 1:1, test range 8 to 0.016 μg/ml, read-out: MIC E. coli + 50% human serum
[5] = MHBII medium, 37° C., test range 64 to 0.008 μg/mL
[6] = DSM750, MHBII medium, 37° C., 20 h, test range 64 to 0.008 μg/mL
[7] = DSM10, MHBII medium, 37° C., 20 h, test range 64 to 0.008 μg/mL
[8] = DSM1790, MHBII medium, 37° C., 20 h, test range 64 to 0.008 μg/mL
[9] = DSM1116, MHBII medium, 37° C., 20 h, test range 64 to 0.008 μg/mL
[10] = BW25113, MHBII medium, 37° C., 20 h, test range 64 to 0.008 μg/mL

| Compound | MIC (E. coli BW25113 [1]; [4]) [µg/mL] | MIC (S. typhimurium TA100; [5]) [µg/mL] | MIC (M. phlei DSM 750; [6]) [µg/mL] | MIC (Bacillus subtilis DSM10; [7]) [µg/mL] | MIC [2, 8] [µg/mL] | MIC (E. coli DSM 1116; [9]) [µg/mL] | MIC (E. coli BW25113 [3]; [10]) [µg/mL] | also measured |
| --- | --- | --- | --- | --- | --- | --- | --- | --- |
| COc1c(NC(=O)c2ccc(NC(=O)c3ccc(NC(=O)C(Cc4c[nH]nn4)NC(=O)c4ccc(NC(=O)/C(C)=C/c5ccc(O)cc5)cc4)cn3)c(OC)c2O)ccc(C(=O)O)c1O (stereo not drawn) [3^RD GEN Alb i, reference compound] | 0.5 | 0.016 (≈ 0.0181 µM) | 0.25 (≈ 0.282 µM) | 0.031 (≈ 0.035 µM) | 0.031 (≈ 0.035 µM) | 0.016 (≈ 0.0181 µM) | 0.016 (≈ 0.0181 µM) |  |
| COc1c(NC(=O)c2ccc(NC(=O)c3ccc(NC(=O)[C@H](Cc4c[nH]nn4)NC(=O)c4ccc(NC(=O)c5c[nH]c6ccccc6c5=O)cc4)cn3)c(OC)c2O)ccc(C(=O)O)c1O [Compound 4] | 2 | ≤ 0.016 |  |  |  |  |  |  |
| COc1c(NC(=O)c2ccc(NC(=O)c3ccc(NC(=O)[C@H](Cc4c[nH]nn4)NC(=O)c4ccc(NC(=O)c5cc(=O)c6cc(F)ccc6o5)cc4)cn3)c(OC)c2O)ccc(C(=O)O)c1O (stereo in doubt) [Compound 12] | 8 | ≤ 0.016 |  |  |  |  |  |  |
| COc1c(NC(=O)c2ccc(NC(=O)c3ccc(NC(=O)C(Cc4c[nH]nn4)NC(=O)c4ccc(NC(=O)c5ccc6nn[nH]c6c5)cc4)cn3)c(OC)c2O)ccc(C(=O)O)c1O (stereo not drawn) [Compound 16] | 8 | 0.125 (≈ 0.144 µM) | 4 to 8 (≈ 4.59 to 9.19 µM) | 0.5 to 1 (≈ 0.574 to 1.15 µM) | 1 (≈ 1.15 µM) | 0.063 (≈ 0.0723 µM) | 0.031 (≈ 0.0356 µM) |  |
| COc1c(NC(=O)c2ccc(NC(=O)c3ccc(NC(=O)[C@H](Cc4c[nH]nn4)NC(=O)c4ccc(NC(=O)c5ccc6ncccc6c5)cc4)cn3)c(OC)c2O)ccc(C(=O)O)c1O (stereo in doubt) [Compound 2] | 4 | ≤ 0.016 |  |  |  |  |  |  |
| COc1c(NC(=O)c2ccc(NC(=O)c3ccc(NC(=O)[C@H](Cc4c[nH]nn4)NC(=O)c4ccc(NC(=O)c5ccc6ccccc6n5)cc4)cn3)c(OC)c2O)ccc(C(=O)O)c1O (stereo in doubt) [Compound 13] | 2 | ≤ 0.016 |  |  |  |  |  |  |
| COc1c(NC(=O)c2ccc(NC(=O)c3ccc(NC(=O)C(Cc4c[nH]nn4)NC(=O)c4ccc(NCc5ccc6ncccc6c5)cc4)cn3)c(OC)c2O)ccc(C(=O)O)c1O (stereo not drawn) [Compound 15] | 4 to 8 | 0.031 (≈ 0.0358 µM) | 2 (≈ 2.31 µM) | 0.25 to 0.5 (≈ 0.288 to 0.577 µM) | 0.125 (≈ 0.144 µM) | 0.063 (≈ 0.0727 µM) | 0.031 (≈ 0.0358 µM) |  |
| COc1c(NC(=O)c2ccc(NC(=O)c3ccc(NC(=O)[C@H](Cc4c[nH]nn4)NC(=O)c4ccc(NC(=O)c5ccc6nc(C)ccc6c5)cc4)cn3)c(OC)c2O)ccc(C(=O)O)c1O [Compound 1] | 0.5 | ≤ 0.016 | 0.5 (≈ 0.559 µM) | 0.063 (≈ 0.0704 µM) | 0.063 (≈ 0.0704 µM) | 0.016 (≈ 0.0179 µM) | 0.016 (≈ 0.0179 µM) |  |
| COc1c(NC(=O)c2ccc(NC(=O)c3ccc(NC(=O)C(Cc4c[nH]nn4)NC(=O)c4ccc(NC(=O)c5ccc6nc[nH]c6c5)cc4)cn3)c(OC)c2O)ccc(C(=O)O)c1O (stereo not drawn) [Compound 9] | ≥ 8 | 0.125 (≈ 0.144 µM) | 8 (≈ 9.2 µM) | 2 (≈ 2.3 µM) | 2 (≈ 2.3 µM) | 0.125 (≈ 0.144 µM) | 0.125 (≈ 0.144 µM) |  |
| COc1c(NC(=O)c2ccc(NC(=O)c3ccc(NC(=O)[C@H](Cc4c[nH]nn4)NC(=O)c4ccc(NC(=O)c5cc6cc(O)ccc6[nH]5)cc4)cn3)c(OC)c2O)ccc(C(=O)O)c1O (stereo in doubt) [Compound 14] | ≥ 8 | 0.125 (≈ 0.141 µM) |  |  |  |  | 0.125 (≈ 0.141 µM) |  |
| CCn1cc(C(=O)Nc2ccc(C(=O)N[C@@H](Cc3c[nH]nn3)C(=O)Nc3ccc(C(=O)Nc4ccc(C(=O)Nc5ccc(C(=O)O)c(O)c5OC)c(O)c4OC)nc3)cc2)c(=O)c2cc3c(cc21)OCO3 [Compound 6] | 0.5 | ≤ 0.016 |  |  |  |  |  |  |
| CCn1cc(C(=O)Nc2ccc(C(=O)N[C@@H](Cc3c[nH]nn3)C(=O)Nc3ccc(C(=O)Nc4ccc(C(=O)Nc5ccc(C(=O)O)c(O)c5OC)c(O)c4OC)nc3)cc2)c(=O)c2ccc(C)nc21 [Compound 11] | 8 | ≤ 0.016 |  |  |  |  |  |  |
| COc1c(NC(=O)c2ccc(NC(=O)c3ccc(NC(=O)[C@H](Cc4c[nH]nn4)NC(=O)c4ccc(NC(=O)c5cnc6ccccc6c5)cc4)cn3)c(OC)c2O)ccc(C(=O)O)c1O [Compound 3] | 2 | ≤ 0.016 |  |  |  |  |  |  |
| COc1c(NC(=O)c2ccc(NC(=O)c3ccc(NC(=O)[C@H](Cc4c[nH]nn4)NC(=O)c4ccc(NC(=O)c5ccc6nccnc6c5)cc4)cn3)c(OC)c2O)ccc(C(=O)O)c1O [Compound 7] | 1 | ≤ 0.016 |  |  |  |  |  |  |
| COc1c(NC(=O)c2ccc(NC(=O)c3ccc(NC(=O)C(Cc4c[nH]nn4)NC(=O)c4ccc(NC(=O)c5ccc6ncsc6c5)cc4)cn3)c(OC)c2O)ccc(C(=O)O)c1O (stereo not drawn) [Compound 8] | 0.5 | ≤ 0.016 | 2 (≈ 2.26 µM) |  |  | ≤ 0.016 | ≤ 0.016 |  |
| COc1c(NC(=O)c2ccc(NC(=O)c3ccc(NC(=O)[C@H](Cc4c[nH]nn4)NC(=O)c4ccc(NC(=O)c5cc6ccccc6cn5)cc4)cn3)c(OC)c2O)ccc(C(=O)O)c1O (stereo in doubt) [Compound 10] |  |  |  |  |  |  |  | MIC (E. coli BW25113 [1]; BW25113, read-out: MIC E. coli + 50% human serum): 1 µg/mL; MIC (S. typhimurium TA100): ≤ 0.016 µg/mL; MIC (M. phlei DSM 750; DSM750, 20 h): 1 µg/mL (≈ 1.14 µM); MIC (Bacillus subtilis DSM10; DSM10, 20 h): 0.063 µg/mL (≈ 0.0715 µM); MIC ([2]; DSM1790, 20 h): 0.063 µg/mL (≈ 0.0715 µM); MIC (E. coli DSM 1116; DSM1116, 20 h): ≤ 0.016 µg/mL; MIC (E. coli BW25113 [3]; BW25113, 20 h): ≤ 0.016 µg/mL |
